Earlier results as cited in patent publication US20090285869A1, “SALT STABLE LECITHIN ORGANOGEL COMPOSITION” (Humco Holding Group, Inc., priority 2008, published 2009).

Conditions: non-ionic O/W and W/O emulsifiers; scale from 0 to 20

Approximate HLB value	Molecule
~15.5	Oleth-20
~15.7	Ceteareth-20
~4.0	Glyceryl Dilaurate
~16.2	Ceteareth-25
~10.0	Ceteareth-6
~13.4	Ceteareth-12
~9.0	Oleth-5
~12.4	Oleth-10

Molecule	Approximate HLB value
CCCCCCCCCCCC(=O)OCC(O)CO (stereo not drawn) [Glyceryl Laurate]	~5.2
CCCCCCCC/C=C\CCCCCCCC(=O)OCC(O)CO (stereo not drawn) [Glyceryl Oleate]	~2.8
CCCCCCCCCCCCCCCCCC(=O)OCC(O)CO (stereo not drawn) [Glyceryl Stearate]	~4.0
CCCCCC[C@@H](O)C/C=C\CCCCCCCC(=O)OCC(O)CO (stereo partly drawn) [Glyceryl Ricinoleate]	~2.6
